This assay has as its target T1, hMC2 receptor (crude hMC2R membranes from CRE-bla-CHO-K1 cells stably expressing hMC2 receptor and hMRAP accessory protein) (Homo sapiens, UniProt Q01718).
T1 construct: crude membrane fractions
Kind of assay: hMC2 membrane binding assay ([125I]ACTH (1-39) Tyr23, SPA). The note with it: displacement of 0.2 nM [125I]ACTH (1-39) Tyr23 from hMC2R membranes, 1.5 hours at room temperature; read-out: MC2R binding potency. The procedure, abridged: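 Crude membranes from CRE-bla-CHO-K1 cells stably co-expressing hMC2R and hMRAP, premixed with WGA PVT SPA beads in pH 7.4 HEPES buffer (5 mM MgCl2, 1 mM CaCl2, 0.20% BSA, protease inhibitors). Compounds compete with [125I]ACTH(1-39) Tyr23, read by scintillation. Ki from non-linear regression.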
T1 sequence (Q01718 whole entry): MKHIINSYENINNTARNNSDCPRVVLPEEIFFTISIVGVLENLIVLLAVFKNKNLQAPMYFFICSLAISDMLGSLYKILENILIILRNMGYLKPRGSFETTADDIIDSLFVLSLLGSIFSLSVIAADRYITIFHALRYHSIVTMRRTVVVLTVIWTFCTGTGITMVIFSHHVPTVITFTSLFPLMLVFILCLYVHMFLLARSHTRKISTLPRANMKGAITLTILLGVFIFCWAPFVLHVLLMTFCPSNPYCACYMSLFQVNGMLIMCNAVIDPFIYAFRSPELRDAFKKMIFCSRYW
T1 sequence (Q8TCY5 whole entry partner): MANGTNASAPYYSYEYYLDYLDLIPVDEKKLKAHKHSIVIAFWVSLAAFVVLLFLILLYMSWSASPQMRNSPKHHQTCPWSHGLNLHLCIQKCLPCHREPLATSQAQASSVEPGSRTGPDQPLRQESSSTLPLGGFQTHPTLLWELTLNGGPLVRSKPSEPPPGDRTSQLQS
Regarding `CN1CC[C@H](NC(=O)C2(c3ccc(-c4cccn4C)nn3)CCN(c3ccc(Cl)cc3C#N)CC2)C1` [Compound 1-170, 1-(4-chloro-2-cyanophenyl)-4-[6-(1-methyl-1H-pyrrol-2-yl)pyridazin-3-yl]-N-[(3S)-1-methylpyrrolidin-3-yl]piperidine-4-carboxamide], the Ki is below 10 nM.
Regarding `COc1ccccc1-c1ccc(C2(C(=O)NC[C@@H]3C[C@@H](F)CN3)CCN(c3ccc(C(F)(F)F)cc3C#N)CC2)cn1` [Compound 1-247, 1-[2-cyano-4-(trifluoromethyl)phenyl]-N-{[(2S,4R)-4-fluoropyrrolidin-2-yl]methyl}-4-[6-(2-methoxyphenyl)pyridin-3-yl]piperidine-4-carboxamide], the Ki is below 10 nM.
As for `CCOc1ncccc1-c1ccc(C2(C(=O)N[C@H]3CCN(C)C3)CCN(c3ccc(C(F)(F)F)cc3Cl)CC2)nn1` [Compound 1-194, 1-[2-chloro-4-(trifluoromethyl)phenyl]-4-[6-(2-ethoxypyridin-3-yl)pyridazin-3-yl]-N-[(3S)-1-methylpyrrolidin-3-yl]piperidine-4-carboxamide], the Ki is below 10 nM.
For the compound `CN1CC[C@@H](NC(=O)C2(c3ccc(-c4ccccc4C4CC4)nc3)CCN(c3ccc(C(F)(F)F)cc3C#N)CC2)C1` [Compound 1-113, 1-[2-cyano-4-(trifluoromethyl)phenyl]-4-[6-(2-cyclopropylphenyl)pyridin-3-yl]-N-[(3R)-1-methylpyrrolidin-3-yl]piperidine-4-carboxamide], the Ki was below 10 nM.
On to `CCOc1ncccc1-c1ncc(C2(C(=O)NCCNC)CCN(c3ccc(C(F)(F)F)cc3F)CC2)cc1F` [Compound 1-287, 4-{2′-ethoxy-3-fluoro-[2,3′-bipyridin]-5-yl}-1-[2-fluoro-4-(trifluoromethyl)phenyl]-N-[2-(methylamino)ethyl]piperidine-4-carboxamide], for which the Ki is below 10 nM.
On to `CN1CC[C@@H](NC(=O)C2(c3ccc(-c4cccc(F)c4F)nc3)CCN(c3ccc(C(F)(F)F)cc3C#N)CC2)C1` [Compound 1-61, 1-[2-cyano-4-(trifluoromethyl)phenyl]-4-[6-(2,3-difluorophenyl)pyridin-3-yl]-N-[(3R)-1-methylpyrrolidin-3-yl]piperidine-4-carboxamide], for which the Ki is below 10 nM.
As to `CCOc1ccccc1-c1ccc(C2(C(=O)N[C@H]3CCN(C)C3)CCN(c3ccc(C(F)(F)F)cc3Cl)CC2)cn1` [Compound 1-97, 1-[2-chloro-4-(trifluoromethyl)phenyl]-4-[6-(2-ethoxyphenyl)pyridin-3-yl]-N-[(3S)-1-methylpyrrolidin-3-yl]piperidine-4-carboxamide], the Ki is below 10 nM.
As for `CCOc1ncccc1-c1ccc(C2(OC(=O)NCCN(C)C)CCN(c3ccc(C(F)(F)F)cc3C#N)CC2)cc1` [Compound 2-2, 1-[2-cyano-4-(trifluoromethyl)phenyl]-4-[4-(2-ethoxypyridin-3-yl)phenyl]piperidin-4-yl N-[2-(dimethylamino)ethyl]carbamate], the Ki lay in the range of 10 to 100 nM.
On to `COc1ccccc1-c1ccc(C2(C(=O)NC[C@H]3COCCN3C)CCN(c3ccc(C(F)(F)F)cc3C#N)CC2)cn1` [Compound 1-328, 1-[2-cyano-4-(trifluoromethyl)phenyl]-4-[6-(2-methoxyphenyl)pyridin-3-yl]-N-{[(3S)-4-methylmorpholin-3-yl]methyl}piperidine-4-carboxamide], for which the Ki lay in the range of 10 to 100 nM.
Take `COc1ccccc1-c1ccc(C2(C(=O)N[C@H]3CCN(C)C3)CCN(c3ccc(C(F)(F)F)cc3C#N)CC2)cn1` [Compound 1-166, 1-[2-cyano-4-(trifluoromethyl)phenyl]-4-[6-(2-methoxyphenyl)pyridin-3-yl]-N-[(3S)-1-methylpyrrolidin-3-yl]piperidine-4-carboxamide]: the Ki is below 10 nM.
On to `CCOc1ncccc1-c1ccc(C2(C(=O)NCCNC)CCN(c3ccc(C(F)(F)F)cc3F)CC2)cn1` [Compound 1-223, 4-{2′-ethoxy-[2,3′-bipyridin]-5-yl}-1-[2-fluoro-4-(trifluoromethyl)phenyl]-N-[2-(methylamino)ethyl]piperidine-4-carboxamide], for which the Ki is below 10 nM.
As to `CN(C)[C@@H]1COC[C@H]1NC(=O)C1(c2ccc(-c3cccn3C)nc2)CCN(c2ccc(C(F)(F)F)cc2C#N)CC1` [Compound 1-264, 1-[2-cyano-4-(trifluoromethyl)phenyl]-N-[(3S,4S)-4-(dimethylamino)oxolan-3-yl]-4-[6-(1-methyl-1H-pyrrol-2-yl)pyridin-3-yl]piperidine-4-carboxamide], the Ki was 10 to 100 nM.
The value for `COc1nc2ccccc2cc1-c1ccc(C2(C(=O)N[C@@H]3CCN(C)C3)CCN(c3ccc(C(F)(F)F)cc3C#N)CC2)cn1` [Compound 1-189, 1-[2-cyano-4-(trifluoromethyl)phenyl]-4-[6-(2-methoxyquinolin-3-yl)pyridin-3-yl]-N-[(3R)-1-methylpyrrolidin-3-yl]piperidine-4-carboxamide] was below 10 nM.
As to `CNCCNC(=O)C1(c2ccc(-c3cccnc3OC)nc2)CCN(c2ccc(C(F)(F)F)cc2F)CC1` [Compound 1-272, 1-[2-fluoro-4-(trifluoromethyl)phenyl]-4-{2′-methoxy-[2,3′-bipyridin]-5-yl}-N-[2-(methylamino)ethyl]piperidine-4-carboxamide], the Ki was below 10 nM.
In the case of `CCc1sccc1-c1ccc(C2(C(=O)N[C@H]3CCN(C)C3)CCN(c3ccc(C(F)(F)F)cc3C#N)CC2)cn1` [Compound 1-147, 1-[2-cyano-4-(trifluoromethyl)phenyl]-4-[6-(2-ethylthiophen-3-yl)pyridin-3-yl]-N-[(3S)-1-methylpyrrolidin-3-yl]piperidine-4-carboxamide], the Ki is below 10 nM.
`CCOc1ncccc1-c1cnc(C2(C(=O)N[C@@H]3CCN(C)C3)CCN(c3ccc(C(F)(F)F)cc3C#N)CC2)cn1` [Compound 1-51, 1-[2-cyano-4-(trifluoromethyl)phenyl]-4-[5-(2-ethoxypyridin-3-yl)pyrazin-2-yl]-N-[(3R)-1-methylpyrrolidin-3-yl]piperidine-4-carboxamide]: the Ki is below 10 nM.
With `CCOc1ncccc1-c1ccc(C2(C(=O)N[C@H]3CCN(C)C3)CCN(c3ccc(C(F)(F)F)cc3Cl)CC2)cn1` [Compound 1-141, 1-[2-chloro-4-(trifluoromethyl)phenyl]-4-{2′-ethoxy-[2,3′-bipyridin]-5-yl}-N-[(3S)-1-methylpyrrolidin-3-yl]piperidine-4-carboxamide], the Ki was below 10 nM.
Consider `CCOc1ncccc1-c1ccc(C2(NC(=O)N[C@@H]3CCN(C)C3)CCN(c3ccc(C(F)(F)F)cc3C#N)CC2)cn1` [Compound 2-19, 1-{1-[2-cyano-4-(trifluoromethyl)phenyl]-4-{2′-ethoxy-[2,3′-bipyridin]-5-yl}piperidin-4-yl}-3-[(3R)-1-methylpyrrolidin-3-yl]urea], for which the Ki is below 10 nM.
`CN1CC[C@@H](NC(=O)C2(c3ccc(-c4cccc5c4OCC5)nc3)CCN(c3ccc(C(F)(F)F)cc3C#N)CC2)C1` [Compound 1-53, 1-[2-cyano-4-(trifluoromethyl)phenyl]-4-[6-(2,3-dihydro-1-benzofuran-7-yl)pyridin-3-yl]-N-[(3R)-1-methylpyrrolidin-3-yl]piperidine-4-carboxamide]: the Ki was 10 to 100 nM.
As to `COc1ncccc1-c1ccc(C2(C(=O)N[C@@H]3CCN(C)C3)CCN(c3ccc(C(F)(F)F)cc3C#N)CC2)cn1` [Compound 1-98, 1-[2-cyano-4-(trifluoromethyl)phenyl]-4-{2′-methoxy-[2,3′-bipyridin]-5-yl}-N-[(3R)-1-methylpyrrolidin-3-yl]piperidine-4-carboxamide], the Ki is below 10 nM.
Turning to `CCOc1ncccc1-c1ccc(C2(C(=O)N[C@@H]3CCN(C)C3)CCN(c3ccc(C(F)(F)F)c(Cl)c3)CC2)cc1` [Compound 1-165, 1-[3-chloro-4-(trifluoromethyl)phenyl]-4-[4-(2-ethoxypyridin-3-yl)phenyl]-N-[(3R)-1-methylpyrrolidin-3-yl]piperidine-4-carboxamide], the Ki was in the range of 10 to 100 nM.
`Cn1cccc1-c1ccc(C2(C(=O)NC[C@H]3CCCN3)CCN(c3ccc(C(F)(F)F)cc3C#N)CC2)cn1` [Compound 1-231, 1-[2-cyano-4-(trifluoromethyl)phenyl]-4-[6-(1-methyl-1H-pyrrol-2-yl)pyridin-3-yl]-N-{[(2R)-pyrrolidin-2-yl]methyl}piperidine-4-carboxamide]: the Ki is below 10 nM.
For `CCOc1ncccc1-c1ccc(C2(NC(=O)[C@H]3CCNC3)CCN(c3ccc(C(F)(F)F)cc3C#N)CC2)cn1` [Compound 2-8, (3S)—N-{1-[2-cyano-4-(trifluoromethyl)phenyl]-4-{2′-ethoxy-[2,3′-bipyridin]-5-yl}piperidin-4-yl}pyrrolidine-3-carboxamide], the Ki is below 10 nM.
Take `CCOc1ncccc1-c1ccc(C2(C(=O)N[C@H]3CCN(C)C3)CCN(c3ncc(C(F)(F)F)cc3Cl)CC2)cn1` [Compound 1-150, 1-[3-chloro-5-(trifluoromethyl)pyridin-2-yl]-4-{2′-ethoxy-[2,3′-bipyridin]-5-yl}-N-[(3S)-1-methylpyrrolidin-3-yl]piperidine-4-carboxamide]: the Ki was in the range of 10 to 100 nM.
With `CCOc1ccccc1-c1ccc(C2(C(=O)N[C@H]3CCN(C)C3)CCN(c3ccc(C(F)(F)F)cc3F)CC2)cn1` [Compound 1-145, 4-[6-(2-ethoxyphenyl)pyridin-3-yl]-1-[2-fluoro-4-(trifluoromethyl)phenyl]-N-[(3S)-1-methylpyrrolidin-3-yl]piperidine-4-carboxamide], the Ki is below 10 nM.
As to `COc1ccccc1-c1ccc(C2(C(=O)NCCN(C)C)CCN(c3ccc(C(F)(F)F)cc3Cl)CC2)cn1` [Compound 1-255, 1-[2-chloro-4-(trifluoromethyl)phenyl]-N-[2-(dimethylamino)ethyl]-4-[6-(2-methoxyphenyl)pyridin-3-yl]piperidine-4-carboxamide], the Ki was below 10 nM.
